Results reported in publication PMC7926923, “Identification of Active Site Residues of the Siderophore Synthesis Enzyme PvdF and Evidence for Interaction of PvdF with a Substrate-Providing Enzyme” (International Journal of Molecular Sciences, 2021).

How the values were obtained:
[1] = biological target: T1, PvdF (Pseudomonas aeruginosa, UniProt Q9I184); assay: direct injection mass spectrometry of fOHOrn product; type: biochemical; details: 25 uM PvdF, 1 mM OHOrn, 1.5 mM fTHF, 10 mM HEPES pH 8.0, 30 C, 3 h
T1 construct: recombinant from E. coli BL21(DE3), His6 tag kept at N-terminus (His6PvdF, pET-DUET1; also all variants) or C-terminus (PvdFHis6, pET21a); IMAC and SEC; monomer
T1 sequence (Q9I184 entry or part of it): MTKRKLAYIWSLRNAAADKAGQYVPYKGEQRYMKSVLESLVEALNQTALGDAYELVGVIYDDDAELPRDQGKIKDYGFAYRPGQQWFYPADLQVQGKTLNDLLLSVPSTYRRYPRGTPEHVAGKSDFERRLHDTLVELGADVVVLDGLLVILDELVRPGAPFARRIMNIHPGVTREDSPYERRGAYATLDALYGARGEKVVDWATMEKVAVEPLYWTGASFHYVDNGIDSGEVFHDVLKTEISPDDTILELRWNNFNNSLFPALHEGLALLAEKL

[2] = biological target: T1, PvdF; assay: differential scanning fluorimetry, SYPRO Orange; type: binding; details: 10 uM protein, 1.5 mM fTHF, 10 mM HEPES pH 8.0; site not determined; also co-substrate in the activity assay

Compound	direct injection mass spectrometry of fOHOrn product [1]	thermal shift [2]
N[C@@H](CCCNO)C(=O)O [L-OHOrn]	able to convert OHOrn to fOHOrn with fTHF as the co-substrate	–
Nc1nc2c(c(=O)[nH]1)N[C@@H](CN(C=O)c1ccc(C(=O)N[C@@H](CCC(=O)O)C(=O)O)cc1)CN2 [N^10-formyltetrahydrofolate]	–	addition of fTHF resulted in a significant change in fluorescence of wild-type PvdF
